{"source": "patent US20100113334A1", "about": "“METHODS FOR REDUCING OR PREVENTING TRANSMISSION OF NOSOCOMIAL PATHOGENS IN A HEALTH CARE FACILITY” (priority 2003, published 2010)", "key": {"[1]": {"system": "E. faecium C68 (VanB-type clinical VRE isolate)", "test": "Minimum-inhibitory concentration for VRE C68", "format": "cell-based", "description": "Pathogens Studied: E. faecium C68, a previously described VanB-type clinical VRE isolate, was used for the following murine VRE experiments (Donskey et al., J. Microbial. Meth. 1807: 1-8, 2003). […] Klebsiella pneumoniae P62 is a clinical isolate that produces an SHV type extended-spectrum β-lactamase (ESBL). Candida glabrata A239 is a clinical isolate with a fluconazole minimum-inhibitory concentration of 2 μg/mL."}, "[2]": {"system": "VRE C68", "test": "Eradication of VRE stool colonization in mice (Example 2)", "format": "in vivo", "description": "Quantification of Stool Pathogens: Fresh stool specimens were processed as described by Donskey et al. (supra). In order to quantify VRE, K. pneumoniae, and C. glabrata, diluted samples were plated onto Enterococcosel agar containing vancomycin 20 μg/mL, MacConkey agar containing ceftazidime 10 μg/mL, or Sabouraud Dextrose Agar (Becton, Dickinson, and Company, Sparks, Md.) containing piperacillin/tazobactam 16 μg/mL and linezolid 8 μg/mL, respectively. The plates were incubated in room air at 37° C. far 24 or 48 hours, and the number of colony-forming units (CFU) of each pathogen per gram of sample was calculated.\nHigh-density VRE stool colonization was established in mice by administering subcutaneous clindamycin (1.4 mg) once each day for 2 days before and 7 days after orogastric inoculation of 10^6 colony-forming units (CFU) of VRE C68 using a stainless steel feeding tube (Perfektum, Popper & Sons, New Hyde Park, N.Y.). […] Six mice were included in each treatment group.\nTo evaluate the possibility that ramoplanin-treated mice were being re-exposed to VRE from their environment, broth-enrichment cultures for VRE were performed as previously described Ray et al. (JAMA 287: 1400-1401, 2002) after contacting cage bottoms and tops, water bottles, and food with pre-moistened cotton-tipped swabs."}, "[3]": {"system": "total anaerobes", "test": "Effect on indigenous stool microflora (Example 3), quantitative culture", "format": "in vivo, mice", "settings": "100 μg/mL in drinking water, seven days"}, "[4]": {"system": "Bacteroides species", "test": "Effect on indigenous stool microflora (Example 3), quantitative culture", "format": "in vivo, mice", "settings": "100 μg/mL in drinking water, seven days"}, "[5]": {"system": "Enterococcus species", "test": "Effect on indigenous stool microflora (Example 3), quantitative culture", "format": "in vivo, mice"}, "[6]": {"system": "indigenous stool microflora", "test": "DGGE of PCR-amplified bacterial ribosomal RNA genes from stool (Example 3)", "format": "in vivo, mice", "settings": "oral ramoplanin 100 μg/mL in drinking water"}, "[7]": {"system": "Gram-negative bacteria (enteric bacteria and Bacteroides spp.)", "test": "Activity on stool microflora of healthy volunteers (Example 7.1)", "format": "in vivo, human", "settings": "10 days BID", "description": "(§1) The predetermined dose was reconstituted in 5 mL water per vial, mixed with 50 mL of sweetened, aromatized solution, and immediately administered orally to the subjects.\n(§2) Faecal microbial concentrations (organisms per gram of faecal matter) were determined at the following timepoints: day-4 (pre-treatment), days 4 and 10 (treatment), and days […] and 24 (follow-up). Tolerability and absorption were also investigated."}, "[8]": {"system": "Gram-positive bacteria (staphylococci, streptococci, enterococci)", "test": "Activity on stool microflora of healthy volunteers (Example 7.1)", "format": "in vivo, human", "description": "as §1, §2"}, "[9]": {"system": "yeast", "test": "Activity on stool microflora of healthy volunteers (Example 7.1)", "format": "in vivo, human", "settings": "10 days BID", "description": "as §1, §2"}, "[10]": {"system": "VRE", "test": "Multiple dose study in asymptomatic carriers of gastro-intestinal VRE (Example 7.2)", "format": "in vivo, human", "settings": "for patients with no detectable VRE: p<0.01; for patients who remained VRE free: Day 14 (seven days after cessation)", "description": "Patients were assessed by rectal swab on Days 7, 14, and 21 to determine the presence or absence of VRE. […] All VRE isolates were tested for susceptibility to ramoplanin."}, "[11]": {"system": "E faecalis", "settings": "30 strains; cited from earlier work"}, "[12]": {"system": "S. pneumoniae", "settings": "20 strains; cited from earlier work"}, "[13]": {"settings": "day 8 of 100 μg/ml drinking water, 8 mice"}}, "data": [{"substance": "Ramoplanin", "values": [{"measurement": "minimum-inhibitory concentration", "setting": "[1]", "result": 0.125, "unit": "µg/mL"}, {"measurement": "mice that developed a recurrence of colonization after discontinuing treatment", "setting": "[2]; 100 μg/ml in drinking water", "result": "One hundred"}, {"measurement": "mice that developed a detectable recurrence of colonization after discontinuing treatment", "setting": "[2]; 500 μg/ml in drinking water", "result": 50, "unit": "%"}, {"measurement": "levels of VRE in stool during treatment", "setting": "[2]; 100 or 500 μg/ml in drinking water, 8 days, P<0.0001 vs controls", "result": "undetectable levels"}, {"measurement": "mice with VRE detectable in sections of the cecal lining", "setting": "[2]; [13]", "result": 25, "unit": "%"}, {"measurement": "mice with negative stool and cecal content cultures for VRE", "setting": "[2]; [13]", "result": 100, "unit": "%"}, {"measurement": "level of VRE in sections of the cecal lining", "setting": "[2]; the 2 positive mice, day 8 of 100 μg/ml drinking water", "result": "2-3 log10 CFU/g"}, {"measurement": "mean density of total anaerobes in stool", "setting": "[3]", "result": "not significantly affected"}, {"measurement": "mean density of Bacteroides species in stool", "setting": "[4]", "result": "not significantly affected"}, {"measurement": "Enterococcus species in stool", "setting": "[5]; at least 11 days after discontinuation (day 18)", "result": "remained significantly reduced"}, {"measurement": "Enterococcus species in stool", "setting": "[5]; ramoplanin treatment, P<0.001", "result": "significantly reduced"}, {"measurement": "stool DGGE patterns, mean similarity indices in comparison to the pre-treatment patterns", "setting": "[6]", "result": 72, "unit": "%"}, {"measurement": "effect on faecal Gram-negative bacteria", "setting": "[7]", "result": "no effect"}, {"measurement": "faecal concentrations of staphylococci, streptococci, and enterococci", "setting": "[8]; by day 10, all subjects", "result": "below the level of detection"}, {"measurement": "effect on faecal Gram-positive bacteria", "setting": "[8]; first measurement on day 4", "result": "marked effect"}, {"measurement": "effect on faecal yeast", "setting": "[9]", "result": "no effect"}, {"measurement": "patients with no detectable VRE", "setting": "[10]; Day 7, 100 mg BID for seven days, 17 of 21 patients", "result": 81.0, "unit": "%"}, {"measurement": "patients with no detectable VRE", "setting": "[10]; Day 7, 400 mg BID for seven days, 18 of 20 patients", "result": 90.0, "unit": "%"}, {"measurement": "patients who remained VRE free", "setting": "[10]; 100 mg BID, 6 of 21 patients", "result": 28.6, "unit": "%"}, {"measurement": "patients who remained VRE free", "setting": "[10]; 400 mg BID, 7 of 17 patients", "result": 41.2, "unit": "%"}, {"measurement": "number of VRE-free patients", "setting": "[10]; Day 21", "result": "comparable among all treatment groups"}, {"measurement": "Ramoplanin MIC90", "setting": "[11]", "result": 0.5, "unit": "µg/mL"}, {"measurement": "Ramoplanin MIC90", "setting": "[12]", "result": "<0.03", "unit": "µg/mL"}]}]}
